Experimental findings from ChEMBL document CHEMBL5725543, “Aniline derivative, pharmaceutical composition containing same, and use thereof” (2017) are described below.

The target in the assay is Sphingosine 1-phosphate receptor 1 (Homo sapiens, UniProt P21453). Description: BCA Protein Assay: Inhibitory activity evaluation was performed by multi-screen (registered trademark) HTS 96-well plate (Millipore) using the cell membrane fraction stably expressing S1P1 obtained by the above operation. 25 μL of assay solution (50 mM Tris, 100 mM sodium chloride, 5 mM magnesium chloride, 1 mM EDTA, 1 mM DTT (dithiothreitol), 10 μM GDP (guanosine diphosphate) and 0.5% BSA (bovine serum albumin), pH 7.4), 25 μL of test compounds solution diluted by assay solution and 25 μL of the membrane fraction (0.2 μg protein/μL) were added to each well, and the mixture was gently shaken at room temperature: for 30 minutes. Then, 25 μL of 35S-GTP, and 25 μL of 50 nM S1P1 receptor selective agonist (1-[4-(4-phenyl-5-trifluoromethylthiophen-2-ylmethoxy)benzyl]azetidine-3-carboxylic acid, ¿J. Med. Chem.¿, 2004, vol. 47, pp. 6662-6665, compound 18) were added to each well, respectively, and it was reacted at room temperature for 60 minutes. After the reaction, a reaction solution of each well was suction-filtered. After suction filtration, ice-colded wash solution (50 mM Tris, 100 mM sodium chloride, […] and 1 mM EDTA, pH 7.4) was added to each well, and moreover filters were washed by suction filtration. This wash procedure was performed three times. A bottom of the plate containing the filters was dried at 60° C. […].
Sequence of Sphingosine 1-phosphate receptor 1 (P21453 whole entry): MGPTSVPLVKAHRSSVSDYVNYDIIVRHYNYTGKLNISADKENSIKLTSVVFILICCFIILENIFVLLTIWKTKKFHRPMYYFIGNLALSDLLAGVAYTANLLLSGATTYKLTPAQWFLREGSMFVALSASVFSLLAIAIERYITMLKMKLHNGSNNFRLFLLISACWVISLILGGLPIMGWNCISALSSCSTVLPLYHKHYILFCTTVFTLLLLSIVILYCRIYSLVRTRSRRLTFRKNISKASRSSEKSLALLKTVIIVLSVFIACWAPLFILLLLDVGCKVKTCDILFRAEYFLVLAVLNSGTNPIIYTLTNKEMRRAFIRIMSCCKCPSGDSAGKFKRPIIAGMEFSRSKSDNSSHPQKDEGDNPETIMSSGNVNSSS

In the case of `CCN(c1ccc(Cl)c(C)c1)C(CO)c1cccc(CN2CC(C(=O)O)C2)c1` (stereo unspecified), the IC50 worked out at 11.2 nM.

What is called IC50 is the concentration needed to halve the response being measured.
